Source: ChEMBL document CHEMBL1140148, “Structure-activity studies on a series of a 2-aminopyrimidine-containing histamine H4 receptor ligands” (J Med Chem, 2008)
≈ marks a conversion by molar mass, not a printed value. Calls of active or inactive are those of the source. No cut-off for these calls is given here.

Legend:
Rattus norvegicus [1] = experiment: Plasma concentration in rat at 30 umol/kg, ip; assay type: ADME, organism-based; details: in vivo
Rattus norvegicus [2] = experiment: Plasma concentration in rat at 100 umol/kg, ip; assay type: ADME, organism-based; details: in vivo
[3] = Protein binding in ip dosed rat plasma; assay type: ADME, organism-based; details: read-out: PPB (converted)
Rattus norvegicus [4] = species: Rattus norvegicus; experiment: Antiinflammatory activity against carrageenan-induced hyperalgesia in rat assessed as increase in paw withdrawal by measuring plasma free fraction potency; assay type: functional, organism-based
[5] = Inhibition of adrenergic alpha2 receptor at 10 umol
[6] = target: 5-hydroxytryptamine receptor 1A (Homo sapiens) (UniProt P08908); experiment: Inhibition of 5HT1A receptor at 10 umol
[7] = target: 5-hydroxytryptamine receptor 1B (Homo sapiens) (UniProt P28222); experiment: Inhibition of 5HT1B receptor at 10 umol
[8] = target: T1, 5-hydroxytryptamine receptor 2A (Homo sapiens, UniProt P28223); experiment: Inhibition of 5HT2A receptor at 10 umol
[9] = target: T2, 5-hydroxytryptamine receptor 7 (Homo sapiens, UniProt P34969); experiment: Inhibition of 5HT7 receptor at 10 umol
[10] = target: T3, 5-hydroxytryptamine receptor 1A (Homo sapiens, UniProt P08908); experiment: Binding affinity to 5HT1A receptor
[11] = target: 5-hydroxytryptamine receptor 1D (Homo sapiens, UniProt P28221); experiment: Binding affinity to 5HT1D receptor
[12] = target: T1, 5-hydroxytryptamine receptor 2A; experiment: Binding affinity to 5HT2A receptor
[13] = target: 5-hydroxytryptamine receptor 2C (Homo sapiens, UniProt P28335); experiment: Binding affinity to 5HT2C receptor
[14] = target: T2, 5-hydroxytryptamine receptor 7; experiment: Binding affinity to 5HT7 receptor
[15] = target: Alpha-2A adrenergic receptor (Homo sapiens, UniProt P08913); experiment: Binding affinity to adrenergic alpha2A receptor
[16] = target: Alpha-2C adrenergic receptor (Homo sapiens, UniProt P18825); experiment: Binding affinity to adrenergic Alpha-2C receptor
[17] = Binding affinity to opioid receptor
[18] = Binding affinity to cyclooxygenase
P2X purinoceptor 7 [19] = target: P2X purinoceptor 7 (Homo sapiens, UniProt Q99572); experiment: Binding affinity to human P2X7 channel
P2X purinoceptor 7 [20] = target: P2X purinoceptor 7 (Mus musculus, UniProt Q9Z1M0); experiment: Binding affinity to mouse P2X7 channel
[21] = Binding affinity to T-type voltage gated calcium channel
[22] = Binding affinity to NMDA receptor
Rattus norvegicus [23] = experiment: Toxicity in rat assessed as effect on locomotor activity by rotarod test upto 300 umol/kg; assay type: organism-based; details: in vivo
[24] = Binding affinity to neuronal nicotine receptor
Cannabinoid receptor 1 = Cannabinoid receptor 1 (Homo sapiens, UniProt P21554); experiment: Binding affinity to cannabinoid receptor
[25] = target: T3, 5-hydroxytryptamine receptor 1A; experiment: Agonist activity at 5HT1A receptor expressed in CHO cells by GTPgammaS binding assay; assay type: functional, cell-based
[26] = target: 5-hydroxytryptamine receptor 1A (Homo sapiens) (UniProt P08908); experiment: Agonist activity at 5HT1A receptor expressed in CHO cells by GTPgammaS binding assay relative to serotonin; assay type: functional, cell-based
[27] = Plasma concentration in rat at 30 umol/kg, ip after 30 mins; assay type: ADME, organism-based
[28] = Drug level in rat brain at 30 umol/kg, ip after 30 mins; assay type: ADME, organism-based; details: read-out: Drug uptake
Histamine H4 receptor [29] = target: T4, Histamine H4 receptor (Rattus norvegicus, UniProt Q91ZY1); experiment: Agonist activity at rat histamine H4 receptor expressed in HEK293 cells coexpressing Gqi5 protein assessed as calcium flux by FLIPR assay; assay type: functional, cell-based
[30] = Terminal volume of distribution in rat at 1 mg/kg, iv; assay type: ADME, organism-based; set-up: dose 1 mg/kg, route intravenous; details: in vivo, read-out: Vbeta
[31] = Terminal volume of distribution in mouse at 2.5 mg/kg, iv; assay type: ADME, organism-based; set-up: dose 2.5 mg/kg, route intravenous; details: in vivo, read-out: Vbeta
[32] = Plasma clearance in rat at 1 mg/kg, iv; assay type: ADME, organism-based; set-up: dose 1 mg/kg, route intravenous
[33] = Plasma clearance in mouse at 2.5 mg/kg, iv; assay type: ADME, organism-based; set-up: dose 2.5 mg/kg, route intravenous
[34] = Cmax in rat at 1 mg/kg, iv; assay type: ADME, organism-based; set-up: dose 1 mg/kg, route intravenous; details: in vivo
[35] = Cmax in mouse at 2.5 mg/kg, iv; assay type: ADME, organism-based; set-up: dose 2.5 mg/kg, route intravenous; details: in vivo
[36] = Tmax in rat at 1 mg/kg, po; assay type: ADME, organism-based; set-up: dose 1 mg/kg, route oral; details: in vivo
[37] = Tmax in mouse at 2.5 mg/kg, po; assay type: ADME, organism-based; set-up: dose 2.5 mg/kg, route oral; details: in vivo
[38] = Bioavailability in rat at 1 mg/kg, po; assay type: ADME, organism-based; details: in vivo
[39] = Bioavailability in mouse at 2.5 mg/kg, po; assay type: ADME, organism-based; details: in vivo
[40] = Cmax in rat at 1 mg/kg, po; assay type: ADME, organism-based; set-up: dose 1 mg/kg, route oral; details: in vivo
[41] = Cmax in mouse at 2.5 mg/kg, po; assay type: ADME, organism-based; set-up: dose 2.5 mg/kg, route oral; details: in vivo
[42] = Half life in mouse at 2.5 mg/kg, po; assay type: ADME, organism-based; set-up: dose 2.5 mg/kg, route oral; details: in vivo
Histamine H4 receptor [43] = target: Histamine H4 receptor (Mus musculus, UniProt Q91ZY2); experiment: Agonist activity at mouse histamine H4 receptor expressed in HEK293 cells coexpressing Gqi5 protein assessed as calcium flux by FLIPR assay; assay type: functional, cell-based
[44] = target: Histamine H4 receptor (Mus musculus) (UniProt Q91ZY2); experiment: Agonist activity at mouse histamine H4 receptor expressed in HEK293 cells coexpressing Gqi5 protein assessed as calcium flux by FLIPR assay relative to histamine; assay type: functional, cell-based
Histamine H4 receptor [45] = target: T4, Histamine H4 receptor; experiment: Displacement of [3H]histamine from rat histamine H4 receptor expressed in HEK293 cells; assay type: cell-based
Histamine H3 receptor [46] = target: Histamine H3 receptor (Homo sapiens, UniProt Q9Y5N1); experiment: Binding affinity to human histamine H3 receptor
Histamine H3 receptor [47] = target: Histamine H3 receptor (Rattus norvegicus, UniProt Q9QYN8); experiment: Binding affinity to rat histamine H3 receptor
Mus musculus [48] = experiment: Antiinflammatory activity in zymosan-induced peritonitis in sc dosed BALB/c mouse model assessed as decrease in myeloperoxidase activity in peritoneal lavage; assay type: functional
Mus musculus [49] = experiment: Antiinflammatory activity in ip dosed CD1/ICR mouse assessed as reduction of clobenpropit-induced itching; assay type: functional
Mus musculus [50] = experiment: Antiinflammatory activity in ip dosed CD1/ICR mouse assessed as reduction of clobenpropit-induced itching at 0.1 to 10 umol administered into scruff of neck; assay type: functional, organism-based
[51] = Plasma concentration in mouse at 25 umol/kg, ip after 30 mins; assay type: ADME, organism-based
Histamine H4 receptor [52] = target: T4, Histamine H4 receptor; experiment: Agonist activity at rat histamine H4 receptor expressed in HEK293 cells coexpressing Gqi5 protein by GTPgammaS assay; assay type: functional, cell-based
[53] = Inhibition of histamine-induced shape change in BALB/c mouse BMMC by gated autofluorescence forward scatter; assay type: functional
Rattus norvegicus [54] = experiment: Antiinflammatory activity against carrageenan-induced thermal hyperalgesia in rat assessed as increase in paw withdrawal at 30 umol/kg, ip relative to control; assay type: functional
Rattus norvegicus [55] = experiment: Antiinflammatory activity against carrageenan-induced thermal hyperalgesia in rat assessed as increase in paw withdrawal at 100 umol/kg, ip relative to control; assay type: functional
Rattus norvegicus [56] = experiment: Antiinflammatory activity against carrageenan-induced thermal hyperalgesia in ip dosed rat assessed as increase in paw withdrawal; assay type: functional
Rattus norvegicus [57] = experiment: Plasma concentration in carrageenan-induced rat at 10 umol/kg, ip; assay type: ADME, organism-based; details: in vivo

T4 sequence (Q91ZY1 whole entry): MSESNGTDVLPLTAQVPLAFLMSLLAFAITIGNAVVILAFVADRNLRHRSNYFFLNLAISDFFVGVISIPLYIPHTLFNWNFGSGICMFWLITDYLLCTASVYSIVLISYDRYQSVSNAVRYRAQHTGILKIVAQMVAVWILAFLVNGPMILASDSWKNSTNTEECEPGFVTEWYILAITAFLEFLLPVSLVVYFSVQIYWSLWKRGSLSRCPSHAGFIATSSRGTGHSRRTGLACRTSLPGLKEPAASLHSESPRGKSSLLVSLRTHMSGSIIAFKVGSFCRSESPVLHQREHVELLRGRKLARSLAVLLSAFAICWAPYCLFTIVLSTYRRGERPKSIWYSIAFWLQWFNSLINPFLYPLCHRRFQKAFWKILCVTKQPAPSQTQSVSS
T3 sequence (P08908 whole entry): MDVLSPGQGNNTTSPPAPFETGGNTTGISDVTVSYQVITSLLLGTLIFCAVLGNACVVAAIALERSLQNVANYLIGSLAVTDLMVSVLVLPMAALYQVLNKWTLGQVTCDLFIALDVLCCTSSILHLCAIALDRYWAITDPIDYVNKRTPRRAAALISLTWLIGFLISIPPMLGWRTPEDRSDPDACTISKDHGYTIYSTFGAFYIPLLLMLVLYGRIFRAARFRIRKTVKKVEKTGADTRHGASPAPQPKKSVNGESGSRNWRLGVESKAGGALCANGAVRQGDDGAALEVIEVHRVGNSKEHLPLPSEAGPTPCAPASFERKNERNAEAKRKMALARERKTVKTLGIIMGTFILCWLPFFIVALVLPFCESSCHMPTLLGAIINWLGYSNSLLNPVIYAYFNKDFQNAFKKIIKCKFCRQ
5-hydroxytryptamine receptor 1A (Homo sapiens), sequence (P08908 whole entry): as above
T1 sequence (P28223 whole entry): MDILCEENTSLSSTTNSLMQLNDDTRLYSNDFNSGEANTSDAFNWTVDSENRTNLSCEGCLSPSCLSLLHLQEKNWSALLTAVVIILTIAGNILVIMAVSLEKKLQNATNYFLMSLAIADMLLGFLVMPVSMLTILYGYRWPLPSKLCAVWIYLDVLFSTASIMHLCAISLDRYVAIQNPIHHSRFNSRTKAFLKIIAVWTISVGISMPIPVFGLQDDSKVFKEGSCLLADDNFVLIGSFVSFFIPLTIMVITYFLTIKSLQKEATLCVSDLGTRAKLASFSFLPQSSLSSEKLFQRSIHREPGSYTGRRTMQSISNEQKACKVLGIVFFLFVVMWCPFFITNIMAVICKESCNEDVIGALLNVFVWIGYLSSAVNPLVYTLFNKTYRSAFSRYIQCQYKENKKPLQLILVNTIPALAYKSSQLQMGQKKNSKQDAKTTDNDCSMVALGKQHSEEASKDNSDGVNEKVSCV
T2 sequence (P34969 whole entry): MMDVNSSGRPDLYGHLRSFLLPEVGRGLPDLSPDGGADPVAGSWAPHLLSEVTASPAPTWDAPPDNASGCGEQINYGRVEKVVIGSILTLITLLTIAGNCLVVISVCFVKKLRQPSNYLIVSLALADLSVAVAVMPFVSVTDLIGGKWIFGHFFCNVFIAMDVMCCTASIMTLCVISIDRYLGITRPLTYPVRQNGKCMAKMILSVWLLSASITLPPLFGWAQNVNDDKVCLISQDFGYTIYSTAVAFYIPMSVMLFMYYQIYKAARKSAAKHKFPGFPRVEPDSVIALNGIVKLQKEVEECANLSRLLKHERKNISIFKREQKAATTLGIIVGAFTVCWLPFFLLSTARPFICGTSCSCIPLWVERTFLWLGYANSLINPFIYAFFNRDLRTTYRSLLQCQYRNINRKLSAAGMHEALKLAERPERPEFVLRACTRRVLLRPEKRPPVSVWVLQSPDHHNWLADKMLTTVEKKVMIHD
Cannabinoid receptor 1, sequence (P21554 whole entry): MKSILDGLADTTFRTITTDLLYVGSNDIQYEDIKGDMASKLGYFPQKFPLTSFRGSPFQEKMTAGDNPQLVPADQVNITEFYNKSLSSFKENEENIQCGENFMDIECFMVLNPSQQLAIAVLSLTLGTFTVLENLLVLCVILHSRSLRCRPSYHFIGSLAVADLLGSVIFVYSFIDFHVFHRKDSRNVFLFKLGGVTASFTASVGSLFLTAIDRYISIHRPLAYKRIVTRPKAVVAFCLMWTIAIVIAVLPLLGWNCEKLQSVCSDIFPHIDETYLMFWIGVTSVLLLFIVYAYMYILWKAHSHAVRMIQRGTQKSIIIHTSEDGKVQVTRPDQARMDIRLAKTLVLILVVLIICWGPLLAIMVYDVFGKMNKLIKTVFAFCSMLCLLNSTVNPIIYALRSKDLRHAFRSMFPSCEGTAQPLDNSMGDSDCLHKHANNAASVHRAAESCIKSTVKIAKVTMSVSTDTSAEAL
Histamine H3 receptor (Rattus norvegicus, UniProt Q9QYN8), sequence (Q9QYN8 whole entry): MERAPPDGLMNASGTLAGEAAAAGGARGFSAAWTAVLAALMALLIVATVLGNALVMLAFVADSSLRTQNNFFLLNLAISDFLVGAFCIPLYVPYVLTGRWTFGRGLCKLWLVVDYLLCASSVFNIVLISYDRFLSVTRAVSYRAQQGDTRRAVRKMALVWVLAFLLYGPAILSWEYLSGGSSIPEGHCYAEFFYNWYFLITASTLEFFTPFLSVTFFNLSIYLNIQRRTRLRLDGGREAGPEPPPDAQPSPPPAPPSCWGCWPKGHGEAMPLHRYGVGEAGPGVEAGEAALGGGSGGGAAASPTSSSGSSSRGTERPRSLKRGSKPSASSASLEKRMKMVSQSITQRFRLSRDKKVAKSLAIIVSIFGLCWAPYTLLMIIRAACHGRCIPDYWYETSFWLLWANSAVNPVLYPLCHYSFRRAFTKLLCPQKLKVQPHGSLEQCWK
5-hydroxytryptamine receptor 2C, sequence (P28335 whole entry): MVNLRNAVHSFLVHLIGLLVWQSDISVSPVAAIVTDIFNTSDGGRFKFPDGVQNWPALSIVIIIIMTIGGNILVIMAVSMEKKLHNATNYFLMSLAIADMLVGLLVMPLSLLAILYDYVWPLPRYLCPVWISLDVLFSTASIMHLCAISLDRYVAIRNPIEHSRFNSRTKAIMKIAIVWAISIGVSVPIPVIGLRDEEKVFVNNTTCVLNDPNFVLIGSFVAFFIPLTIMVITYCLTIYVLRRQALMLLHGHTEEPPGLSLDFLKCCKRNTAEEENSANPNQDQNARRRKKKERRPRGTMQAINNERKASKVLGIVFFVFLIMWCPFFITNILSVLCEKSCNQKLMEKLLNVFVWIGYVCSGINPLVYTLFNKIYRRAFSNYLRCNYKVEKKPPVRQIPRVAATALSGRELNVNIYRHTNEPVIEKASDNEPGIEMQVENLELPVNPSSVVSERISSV
Histamine H3 receptor (Homo sapiens, UniProt Q9Y5N1), sequence (Q9Y5N1 whole entry): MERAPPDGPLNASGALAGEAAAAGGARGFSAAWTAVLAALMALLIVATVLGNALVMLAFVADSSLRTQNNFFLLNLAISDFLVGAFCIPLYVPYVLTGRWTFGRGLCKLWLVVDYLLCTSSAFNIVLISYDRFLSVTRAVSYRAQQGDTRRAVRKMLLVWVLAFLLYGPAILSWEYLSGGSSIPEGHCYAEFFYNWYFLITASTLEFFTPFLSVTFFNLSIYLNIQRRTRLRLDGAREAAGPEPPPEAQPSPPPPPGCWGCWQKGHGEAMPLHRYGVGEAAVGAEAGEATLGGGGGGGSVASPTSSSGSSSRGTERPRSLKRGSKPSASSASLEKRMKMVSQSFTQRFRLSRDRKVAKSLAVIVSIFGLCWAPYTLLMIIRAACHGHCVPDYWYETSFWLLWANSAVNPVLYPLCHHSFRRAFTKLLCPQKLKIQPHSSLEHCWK
Histamine H4 receptor (Mus musculus), sequence (Q91ZY2 whole entry): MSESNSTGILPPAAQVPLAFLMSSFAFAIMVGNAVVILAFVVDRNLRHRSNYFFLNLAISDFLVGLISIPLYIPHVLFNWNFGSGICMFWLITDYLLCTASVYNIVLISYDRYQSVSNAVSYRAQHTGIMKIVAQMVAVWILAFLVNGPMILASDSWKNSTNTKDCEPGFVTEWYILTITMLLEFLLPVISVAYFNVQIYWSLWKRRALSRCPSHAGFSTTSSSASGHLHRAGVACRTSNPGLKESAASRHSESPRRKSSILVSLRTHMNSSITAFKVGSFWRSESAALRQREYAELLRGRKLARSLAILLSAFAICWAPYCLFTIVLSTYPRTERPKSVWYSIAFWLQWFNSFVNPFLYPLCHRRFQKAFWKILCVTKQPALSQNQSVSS
Histamine H4 receptor (Mus musculus, UniProt Q91ZY2), sequence (Q91ZY2 whole entry): as above
Alpha-2A adrenergic receptor, sequence (P08913 whole entry): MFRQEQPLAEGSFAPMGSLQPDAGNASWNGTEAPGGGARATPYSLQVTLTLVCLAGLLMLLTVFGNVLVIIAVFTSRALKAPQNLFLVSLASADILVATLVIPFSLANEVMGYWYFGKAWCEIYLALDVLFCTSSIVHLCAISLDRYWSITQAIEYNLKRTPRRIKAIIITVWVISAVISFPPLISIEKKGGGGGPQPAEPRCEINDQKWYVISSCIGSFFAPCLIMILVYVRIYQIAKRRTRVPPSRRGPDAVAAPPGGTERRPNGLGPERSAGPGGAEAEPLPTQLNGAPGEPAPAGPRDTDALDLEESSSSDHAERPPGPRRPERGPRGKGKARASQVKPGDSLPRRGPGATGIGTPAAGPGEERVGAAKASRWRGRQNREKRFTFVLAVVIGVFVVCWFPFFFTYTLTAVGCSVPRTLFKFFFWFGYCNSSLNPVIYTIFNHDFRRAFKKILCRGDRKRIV
5-hydroxytryptamine receptor 1D, sequence (P28221 whole entry): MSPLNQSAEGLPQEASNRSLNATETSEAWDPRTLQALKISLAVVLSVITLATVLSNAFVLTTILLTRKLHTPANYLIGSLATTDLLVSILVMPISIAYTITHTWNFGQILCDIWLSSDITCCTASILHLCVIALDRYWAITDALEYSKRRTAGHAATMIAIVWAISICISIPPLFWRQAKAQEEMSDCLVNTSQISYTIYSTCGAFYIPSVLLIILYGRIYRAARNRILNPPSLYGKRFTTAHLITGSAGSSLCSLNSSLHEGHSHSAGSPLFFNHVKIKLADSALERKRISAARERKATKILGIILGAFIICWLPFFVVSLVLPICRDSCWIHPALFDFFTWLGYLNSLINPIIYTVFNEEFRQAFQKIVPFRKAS

Compound CN1CCN(c2cc(-c3ccc(C#N)cc3)nc(N)n2)CC1 has a Cp (Rattus norvegicus [1]) of 836 ng/mL, a Cp (Rattus norvegicus [2]) of 2468 ng/mL and a fraction unbound [3] of 0.33. For the same compound, the EC50 (Rattus norvegicus [4]) was 0.2 µg/mL (≈ 0.679 µM), the inhibition [5] was 92% and the inhibition [6] was 99%. The inhibition [7] was 86%, the inhibition [8] was 71% and the inhibition [9] was 53%. The Ki [10] was 0.042 µM, the Ki [11] was 0.12 µM and the Ki [12] was 4.1 µM. For the same compound, the Ki [13] was 3 µM, the Ki [14] was 5.9 µM and the Ki [15] was 0.074 µM. The Ki [16] was 0.29 µM, the IC50 [17] was > 10 µM and the IC50 [18] was > 100 µM. The IC50 (P2X purinoceptor 7 [19]) was > 100 µM, the IC50 (P2X purinoceptor 7 [20]) was > 100 µM and the IC50 [21] was > 10 µM. For the same compound, the IC50 [22] was > 100 µM, the Activity (Rattus norvegicus [23]) was “Non-toxic” and the Ki [24] was 100 µM. For the same compound, the Ki (Cannabinoid receptor 1) was > 10 µM, the EC50 [25] was 1.62 µM and the Efficacy [26] was 92%. The concentration at 0.5 h [27] was 600 ng/mL, the concentration at 0.5 h [28] was 12100 ng/g and the EC50 (Histamine H4 receptor [29]) was 0.0589 µM. For the same compound, the Vd [30] was 7.1 L/kg, the Vd [31] was 3.9 L/kg and the clearance [32] was 172 mL/min/kg. For the same compound, the clearance [33] was 255 mL/min/kg, the Cmax [34] was 160 ng/mL and the Cmax [35] was 570 ng/mL. For the same compound, the Tmax [36] was 24 min, the Tmax [37] was 15 min and the bioavailability [38] was 31%. It also gave a bioavailability [39] of 41%, a Cmax [40] of 32 ng/mL and a Cmax [41] of 92 ng/mL. The half-life [42] was 36 min, the EC50 (Histamine H4 receptor [43]) was 0.123 µM and the Efficacy [44] was 54%. For the same compound, the Ki (Histamine H4 receptor [45]) was 0.275 µM, the Ki (Histamine H3 receptor [46]) was 1.29 µM and the Ki (Histamine H3 receptor [47]) was 0.245 µM. The ED50 (Mus musculus [48]) was 64 µmol/kg, the ED50 (Mus musculus [49]) was 34 µmol/kg and the Activity (Mus musculus [50]) was “inactive”. For the same compound, the concentration at 0.5 h [51] was 1150 ng/mL, the EC50 (Histamine H4 receptor [52]) was 4.68 µM and the pKb [53] was 6.56. For the same compound, the Activity (Rattus norvegicus [54]) was 36%, the Activity (Rattus norvegicus [55]) was 100% and the ED50 (Rattus norvegicus [56]) was 32 µmol/kg. It also gave a Cp (Rattus norvegicus [57]) of 212 ng/mL.
